Experimental findings from patent US20080200454A1, “CARBON-LINKED TETRAHYDRO-PYRAZOLO-PYRIDINE MODULATORS OF CATHEPSIN S” (priority 2007, published 2008) are described below.

SMILES strings stand for the structures.

For one assay, the target named is Recombinant human cathepsin S (CatS) (Homo sapiens, UniProt P25774). Briefly: Recombinant human cathepsin S (CatS) inhibition assay, fluorogenic substrate Z-Valine-Valine-Arginine-AMC.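 Further: Baculovirus-expressed CatS in pH 5.0 sodium acetate buffer with DTT and NaCl, fluorescence read each minute over 20 min, inhibition derived from rate slope.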
Sequence of Recombinant human cathepsin S (CatS) (P25774 115-331): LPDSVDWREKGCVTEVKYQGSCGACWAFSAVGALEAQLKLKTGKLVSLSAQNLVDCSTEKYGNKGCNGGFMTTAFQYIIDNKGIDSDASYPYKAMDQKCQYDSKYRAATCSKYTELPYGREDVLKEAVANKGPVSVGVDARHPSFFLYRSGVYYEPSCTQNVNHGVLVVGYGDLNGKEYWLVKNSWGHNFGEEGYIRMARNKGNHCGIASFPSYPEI
Settings: not given
Regarding `Cc1ccccc1CCc1cc(-c2nn(CCCN3CCOCC3)c3c2CN(S(C)(=O)=O)CC3)ccc1Cl` [Example 60, 3-[4-Chloro-3-(2-o-tolyl-ethyl)-phenyl]-5-methanesulfonyl-1-(3-morpholin-4-yl-propyl)-4,5,6,7-tetrahydro-1H-pyrazolo[4,3-c]pyridine], the IC50 stood at 880 nM.
`CC(C)(C)OC(=O)N1CCC(C2CCN(C[C@H](O)Cn3nc(-c4ccc(Cl)c(CCc5ccc(Cl)cc5)c4)c4c3CCN(C(N)=O)C4)CC2)CC1` [Example 242, 1,1-Dimethylethyl 1′-{(2S)-3-[5-(aminocarbonyl)-3-{4-chloro-3-[2-(4-chlorophenyl)ethyl]phenyl}-4,5,6,7-tetrahydro-1H-pyrazolo[4,3-c]pyridin-1-yl]-2-hydroxypropyl}-4,4′-bipiperidine-1-carboxylate]: the 50% inhibitory concentration (IC50) amounted to 30 nM.
Take `CC(=O)Nc1ccc(C#Cc2cc(-c3nn(CCCN4CCOCC4)c4c3CN(S(C)(=O)=O)CC4)ccc2Cl)cc1` [Example 66, N-(4-{2-Chloro-5-[5-methanesulfonyl-1-(3-morpholin-4-yl-propyl)-4,5,6,7-tetrahydro-1H-pyrazolo[4,3-c]pyridin-3-yl]-phenylethynyl}-phenyl)-acetamide]: the IC50 came out at 250 nM.
For the compound `COC(=O)CNCc1cc(C#Cc2cc(-c3nn(CCCN4CCOCC4C)c4c3CN(C(N)=O)CC4)ccc2Cl)ccc1Cl` (stereo in doubt) [Example 220, Methyl N-{[5-({5-[5-(aminocarbonyl)-1-{3-[(3S)-3-methylmorpholin-4-yl]propyl}-4,5,6,7-tetrahydro-1H-pyrazolo[4,3-c]pyridin-3-yl]-2-chlorophenyl}ethynyl)-2-chlorophenyl]methyl}glycinate], the IC50 turned out to be 30 nM.
The same measure, in the same setting: then `CN(C)S(=O)(=O)N1CCc2c(c(-c3ccc(Cl)c(C#Cc4ccc(CNCc5ccc(Cl)cc5)cc4)c3)nn2CCCN2CCOCC2)C1` [Example 153, 3-(4-Chloro-3-{[4-({[(4-chlorophenyl)methyl]amino}methyl)phenyl]ethynyl}phenyl)-N,N-dimethyl-1-(3-morpholin-4-ylpropyl)-1,4,6,7-tetrahydro-5H-pyrazolo[4,3-c]pyridine-5-sulfonamide], with 180 nM.
On to `CS(=O)(=O)N1CCc2c(c(-c3ccc(Cl)c(C#Cc4ccc5c(c4)CCNC5)c3)nn2CCCN2CCOCC2)C1` [Example 365, 6-({2-Chloro-5-[5-(methylsulfonyl)-1-(3-morpholin-4-ylpropyl)-4,5,6,7-tetrahydro-1H-pyrazolo[4,3-c]pyridin-3-yl]phenyl}ethynyl)-1,2,3,4-tetrahydroisoquinoline], for which the half-maximal inhibitory concentration (IC50) stood at 280 nM.
Still for that read-out and setting: then `NC(=O)N1CCc2c(c(-c3ccc(Cl)c(C#Cc4ccc(Cl)c(CNC5CCCC5)c4)c3)nn2CCCN2CCSCC2)C1` [Example 599, 3-[4-Chloro-3-({4-chloro-3-[(cyclopentylamino)methyl]phenyl}ethynyl)phenyl]-1-(3-thiomorpholin-4-ylpropyl)-1,4,6,7-tetrahydro-5H-pyrazolo[4,3-c]pyridine-5-carboxamide], with 30 nM.
On the same count and under the same terms, to `CS(=O)(=O)N1CCc2c(c(-c3ccc(Cl)c(CCCNS(=O)(=O)c4cccc(C#N)c4)c3)nn2CCCN2CCC(N3CCCC3=O)CC2)C1` [Example 98, N-{3-[2-Chloro-5-(5-methanesulfonyl-1-{3-[4-(2-oxo-pyrrolidin-1-yl)-piperidin-1-yl]-propyl}-4,5,6,7-tetrahydro-1H-pyrazolo[4,3-c]pyridin-3-yl)-phenyl]-propyl}-3-cyano-benzenesulfonamide] belongs 1410 nM.
On the same count and under the same terms, then `C[C@H]1COCCN1CCCn1nc(-c2ccc(Cl)c(C#Cc3ccc4c(c3)CN(C3CC3)CC4)c2)c2c1CCN(S(C)(=O)=O)C2` [Example 277, 7-({2-Chloro-5-[1-{3-[(3S)-3-methylmorpholin-4-yl]propyl}-5-(methylsulfonyl)-4,5,6,7-tetrahydro-1H-pyrazolo[4,3-c]pyridin-3-yl]phenyl}ethynyl)-2-cyclopropyl-1,2,3,4-tetrahydroisoquinoline], with 200 nM; and `Cc1ccc(S(=O)(=O)NCCCc2cc(-c3nn(CCCN4CCC(N5CCCC5=O)CC4)c4c3CN(S(C)(=O)=O)CC4)ccc2Cl)cc1` [Example 92, N-{3-[2-Chloro-5-(5-methanesulfonyl-1-{3-[4-(2-oxo-pyrrolidin-1-yl)-piperidin-1-yl]-propyl}-4,5,6,7-tetrahydro-1H-pyrazolo[4,3-c]pyridin-3-yl)-phenyl]-propyl}-4-methyl-benzenesulfonamide], with 1040 nM.
Take `CS(=O)(=O)N1CCc2c(c(-c3ccc(Cl)c(C#CCCCO)c3)nn2CCCN2CCOCC2)C1` [Example 46, 5-{2-Chloro-5-[5-methanesulfonyl-1-(3-morpholin-4-yl-propyl)-4,5,6,7-tetrahydro-1H-pyrazolo[4,3-c]pyridin-3-yl]-phenyl}-pent-4-yn-1-ol]: the 50% inhibitory concentration (IC50) was 7950 nM.
Consider `CC(NCc1ccc(C#Cc2cc(-c3nn(CCCN4CCN(c5ccccn5)CC4)c4c3CN(S(C)(=O)=O)CC4)ccc2Cl)cc1)c1ccccc1` (centres unmarked) [Example 219, N-({4-[(2-Chloro-5-{5-(methylsulfonyl)-1-[3-(4-pyridin-2-ylpiperazin-1-yl)propyl]-4,5,6,7-tetrahydro-1H-pyrazolo[4,3-c]pyridin-3-yl}phenyl)ethynyl]phenyl}methyl)-1-phenylethanamine], for which the IC50 amounted to 40 nM.
Consider `CS(=O)(=O)N1CCc2c(c(-c3ccc(Cl)c(CCCNS(=O)(=O)c4ccccc4)c3)nn2CCCN2CCOCC2)C1` [Example 65, N-(3-{2-Chloro-5-[5-methanesulfonyl-1-(3-morpholin-4-yl-propyl)-4,5,6,7-tetrahydro-1H-pyrazolo[4,3-c]pyridin-3-yl]-phenyl}-propyl)-benzenesulfonamide], for which the IC50 came to 1070 nM.
Turning to `CS(=O)(=O)N1CCc2c(c(-c3ccc(Cl)c(C#Cc4ccc(Cl)cc4)c3)nn2CC(O)CN2CCNCC2)C1` (centres unmarked) [Example 132, 1-{3-[4-Chloro-3-(4-chloro-phenylethynyl)-phenyl]-5-methanesulfonyl-4,5,6,7-tetrahydro-pyrazolo[4,3-c]pyridin-1-yl}-3-piperazin-1-yl-propan-2-ol], the IC50 was determined as 390 nM.
As to `CS(=O)(=O)N1CCc2c(c(-c3ccc(Cl)c(C#CCc4ccccc4)c3)nn2C[C@@H](O)CN2CCC(C3CCNCC3)CC2)C1` [Example 474, (2S)-1-(4,4′-Bipiperidin-1-yl)-3-{3-[4-chloro-3-(3-phenylprop-1-yn-1-yl)phenyl]-5-(methylsulfonyl)-4,5,6,7-tetrahydro-1H-pyrazolo[4,3-c]pyridin-1-yl}propan-2-ol], the half-maximal inhibitory concentration (IC50) worked out at 430 nM.
Regarding `NC(=O)N1CCc2c(c(-c3ccc(Cl)c(C#Cc4ccc(CNCc5ccc(Cl)cc5)cc4)c3)nn2CCCN2CCN(c3ccccn3)CC2)C1` [Example 156, 3-(4-Chloro-3-{[4-({[(4-chlorophenyl)methyl]amino}methyl)phenyl]ethynyl}phenyl)-1-[3-(4-pyridin-2-ylpiperazin-1-yl)propyl]-1,4,6,7-tetrahydro-5H-pyrazolo[4,3-c]pyridine-5-carboxamide], the IC50 came out at 50 nM.
Turning to `CC(=O)NCCCc1cc(-c2nn(CCCN3CCOCC3)c3c2CN(S(C)(=O)=O)CC3)ccc1Cl` [Example 87, N-(3-{2-Chloro-5-[5-methanesulfonyl-1-(3-morpholin-4-yl-propyl)-4,5,6,7-tetrahydro-1H-pyrazolo[4,3-c]pyridin-3-yl]-phenyl}-propyl)-acetamide], the IC50 is 11400 nM.

The assay is the same for the next values; noted with them: CatS IC50.
As to `CS(=O)(=O)N1CCc2c(c(-c3ccc(Cl)c(C#Cc4ccc(Cl)c(CNCc5ccccc5)c4)c3)nn2CCCN2CCOCC2)C1` [Example 287, 1-[2-Chloro-5-({2-chloro-5-[5-(methylsulfonyl)-1-(3-morpholin-4-ylpropyl)-4,5,6,7-tetrahydro-1H-pyrazolo[4,3-c]pyridin-3-yl]phenyl}ethynyl)phenyl]-N-(phenylmethyl)methanamine], the IC50 worked out at 50 nM.
Turning to `C[C@H]1COCCN1CCCn1nc(-c2ccc(Cl)c(C#Cc3ccc(Cl)c(CNC4CCCC4)c3)c2)c2c1CCN(C(=O)C(N)=O)C2` [Example 269, (S)-2-{3-[4-Chloro-3-(4-chloro-3-cyclopentylaminomethyl-phenylethynyl)-phenyl]-1-[3-(3-methyl-morpholin-4-yl)-propyl]-1,4,6,7-tetrahydro-pyrazolo[4,3-c]pyridin-5-yl}-2-oxo-acetamide], the IC50 stood at 10 nM.
On the same count and under the same terms, to `CN1CCc2cc(C#Cc3cc(-c4nn(CCCN5CCOCC5)c5c4CN(S(C)(=O)=O)CC5)ccc3Cl)ccc2C1` [Example 518, 6-({2-Chloro-5-[5-(methylsulfonyl)-1-(3-morpholin-4-ylpropyl)-4,5,6,7-tetrahydro-1H-pyrazolo[4,3-c]pyridin-3-yl]phenyl}ethynyl)-2-methyl-1,2,3,4-tetrahydroisoquinoline] belongs 390 nM.
`CC1CCN(CCCn2nc(-c3ccc(Cl)c(C#Cc4ccc(CNCc5ccc(Cl)cc5)cc4)c3)c3c2CCN(S(C)(=O)=O)C3)CC1` [Example 344, 1-{4-[(2-Chloro-5-{1-[3-(4-methylpiperidin-1-yl)propyl]-5-(methylsulfonyl)-4,5,6,7-tetrahydro-1H-pyrazolo[4,3-c]pyridin-3-yl}phenyl)ethynyl]phenyl}-N-[(4-chlorophenyl)methyl]methanamine]: the half-maximal inhibitory concentration (IC50) came out at 60 nM.
Same read-out and setting: to `CS(=O)(=O)N1CCc2c(c(-c3ccc(Cl)c(C#Cc4ccc(CNCc5ccc(Cl)cc5)cc4)c3)nn2CCCN2CCC(O)CC2)C1` [Example 330, 1-{3-[3-(4-Chloro-3-{[4-({[(4-chlorophenyl)methyl]amino}methyl)phenyl]ethynyl}phenyl)-5-(methylsulfonyl)-4,5,6,7-tetrahydro-1H-pyrazolo[4,3-c]pyridin-1-yl]propyl}piperidin-4-ol] belongs 90 nM; to `CN(C)Cc1cc(C#Cc2cc(-c3nn(CCCN4CCSCC4)c4c3CN(C(N)=O)CC4)ccc2Cl)ccc1Cl` [Example 615, 3-[4-Chloro-3-({4-chloro-3-[(dimethylamino)methyl]phenyl}ethynyl)phenyl]-1-(3-thiomorpholin-4-ylpropyl)-1,4,6,7-tetrahydro-5H-pyrazolo[4,3-c]pyridine-5-carboxamide], 30 nM.
